Columns and labels:
22RV1 cells = assay: Cell growth inhibition of 22RV1 cells (CellTiter-Glo); assay type: cell-based; details: Homo sapiens, 22Rv1, 120 h, 5 days, CellTiter-Glo, read-out: 22RV1 Cell Growh GI50
Outline: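 22RV1 cells were plated in RPMI1640 with FBS (20% in one version, 10% in the other) and dosed next day at various concentrations from DMSO stocks. After 5 days at 37 °C, viability was measured by CellTiter-Glo luminescence.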

[1] = system: Phospho-Rb (Ser807/811) in MCF7 cells; assay: Phospho-Rb expression inhibition in MCF7 cells quantified by in cell Western; assay type: cell-based, human; details: Homo sapiens, MCF7, 24 h, 24 hours, in cell Western, read-out: MCF7 pRb IC50
Outline: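 MCF7 cells were seeded at 20,000/well, grown overnight, then treated 24 h at 37 °C with compound dilutions (0.1% DMSO from 1000× stocks). Fixed cells were co-stained for phospho-Rb Ser807/811 and total Rb. Near-infrared dual-channel in-cell Western imaging was the read-out.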

SMILES	GI50 (22RV1 cells)	IC50 [1]
CC(C)n1c(CN2[C@@H](C)COC[C@@H]2C)c(C(F)F)c(=O)c2ccc(-c3nc(N[C@@H]4C[C@H]5CO[C@H](O5)[C@H]4O)ncc3Cl)cc21 [Compound 204, 7-(5-chloro-2-(((1S,3R,4S,5R)-4-hydroxy-6,8-dioxabicyclo[3.2.1]octan-3-yl)amino)pyrimidin-4-yl)-3-(difluoromethyl)-2-(((3S,5S)-3,5-dimethylmorpholino)methyl)-1-isopropylquinolin-4(1H)-one]	120 to 450 nM	40 to 150 nM
Cc1c(CN2CCC2)n(C(C)C)c2cc(-c3nc(N[C@@H]4C[C@H]5CO[C@H](O5)[C@H]4O)ncc3F)ccc2c1=O [Compound 196, 2-(azetidin-1-ylmethyl)-7-(5-fluoro-2-(((1S,3R,4S,5R)-4-hydroxy-6,8-dioxabicyclo[3.2.1]octan-3-yl)amino)pyrimidin-4-yl)-1-isopropyl-3-methylquinolin-4(1H)-one]	120 to 450 nM	40 to 150 nM
Cc1c(-c2nc(N[C@@H]3C[C@H]4CO[C@H](O4)[C@H]3O)ncc2Cl)sc2c(Cl)c(C(C)(C)O)cnc12 [Compound 275, (1S,3R,4S,5R)-3-((5-chloro-4-(7-chloro-6-(2-hydroxypropan-2-yl)-3-methylthieno[3,2-b]pyridin-2-yl)pyrimidin-2-yl)amino)-6,8-dioxabicyclo[3.2.1]octan-4-ol]	450 to 3000 nM	40 to 150 nM
Cc1c(CN(C)C)n(C(C)C)c2cc(-c3nc(N[C@@H]4C[C@H]5CO[C@H](O5)[C@H]4O)ncc3F)ccc2c1=O [Compound 195, 2-((dimethylamino)methyl)-7-(5-fluoro-2-(((1S,3R,4S,5R)-4-hydroxy-6,8-dioxabicyclo [3.2.1]octan-3-yl)amino)pyrimidin-4-yl)-1-isopropyl-3-methylquinolin-4(1H)-one]	120 to 450 nM	40 to 150 nM
Cc1c(CN2CC(F)C2)n(C(C)C)c2cc(-c3nc(N[C@@H]4C[C@H]5CO[C@H](O5)[C@H]4O)ncc3F)ccc2c1=O [Compound 197, 7-(5-fluoro-2-(((1S,3R,4S,5R)-4-hydroxy-6,8-dioxabicyclo[3.2.1]octan-3-yl)amino)pyrimidin-4-yl)-2-((3-fluoroazetidin-1-yl)methyl)-1-isopropyl-3-methylquinolin-4(1H)-one]	120 to 450 nM	40 to 150 nM
COC(=O)N1CC[C@@H](c2nc3c(F)cc(-c4nc(N[C@@H]5C[C@H]6CO[C@H](O6)[C@H]5O)ncc4F)cc3n2C(C)C)C1 [Compound 265, methyl (R)-3-(4-fluoro-6-(5-fluoro-2-(((1S,3R,4S,5R)-4-hydroxy-6,8-dioxabicyclo[3.2.1]octan-3-yl)amino)pyrimidin-4-yl)-1-isopropyl-1H-benzo[d]imidazol-2-yl)pyrrolidine-1-carboxylate]	120 to 450 nM	40 to 150 nM
CCn1cc(C(C)C)c2sc(-c3nc(N[C@@H]4C[C@H]5CO[C@H](O5)[C@H]4O)ncc3Cl)c(C)c2c1=O [Compound 230, 5-ethyl-2-(5-chloro-2-(((1S,3R,4S,5R)-4-hydroxy-6,8-dioxabicyclo[3.2.1]octan-3-yl)amino)pyrimidin-4-yl)-7-isopropyl-3-methylthieno[3,2-c]pyridin-4(5H)-one]	120 to 450 nM	≤ 40 nM

The next lines start with the values.

GI50 (22RV1 cells)	IC50 [1]	SMILES
≤ 120 nM	≤ 40 nM	Cc1c(CN2CC[C@H](F)C2)n(C(C)C)c2cc(-c3nc(N[C@@H]4C[C@H]5CO[C@H](O5)[C@H]4O)ncc3F)ccc2c1=O [Compound 293, 7-(5-fluoro-2-(((1S,3R,4S,5R)-4-hydroxy-6,8-dioxabicyclo[3.2.1]octan-3-yl)amino)pyrimidin-4-yl)-2-(((S)-3-fluoropyrrolidin-1-yl)methyl)-1-isopropyl-3-methylquinolin-4(1H)-one]
≤ 120 nM	≤ 40 nM	CC(C)(O)c1cnc2c(F)cc(-c3nc(N[C@@H]4C[C@H]5CO[C@H](O5)[C@H]4O)ncc3F)cc2c1Cl [Compound 255, (1S,3R,4S,5R)-3-((4-(4-chloro-8-fluoro-3-(2-hydroxypropan-2-yl)quinolin-6-yl)-5-fluoropyrimidin-2-yl)amino)-6,8-dioxabicyclo[3.2.1]octan-4-ol]
≤ 120 nM	≤ 40 nM	Cc1c(CN2[C@@H](C)COC[C@@H]2C)n(C(C)C)c2cc(-c3nc(N[C@@H]4C[C@H]5CO[C@H](O5)[C@H]4O)ncc3F)ccc2c1=O [Compound 199, 2-(((3S,5S)-3,5-dimethylmorpholino)methyl)-7-(5-fluoro-2-(((1S,3R,4S,5R)-4-hydroxy-6,8-dioxabicyclo[3.2.1]octan-3-yl)amino)pyrimidin-4-yl)-1-isopropyl-3-methylquinolin-4(1H)-one]
≤ 120 nM	≤ 40 nM	Cc1c(C(C)(C)O)cnc2c(F)cc(-c3nc(N[C@@H]4C[C@H]5CO[C@H](O5)[C@H]4O)ncc3F)cc12 [Compound 256, (1S,3R,4S,5R)-3-((5-fluoro-4-(8-fluoro-3-(2-hydroxypropan-2-yl)-4-methylquinolin-6-yl)pyrimidin-2-yl)amino)-6,8-dioxabicyclo[3.2.1]octan-4-ol]
